Assay type in all cases: in vivo
One test concerns DSS-induced colitis. Put plainly: DSS-induced colitis in mice, MC-12 5 or 25 mg/kg ip or po (Example 4). The conditions noted are these: for reduction of histological score compared to DSS control: p<0.01. As for the experimental part:
Female C57BL/6 and SJL/J mice (Taconic, Hudson, N.Y.), 7-9 weeks old, were kept under controlled temperature (25° C.) with a 12/12-hour light-dark cycle and free access to standard diet and drinking water. The mice were allowed to acclimate for 7 days before the start of experiments.
The mice received 2% dextran sulfate sodium (DSS, MW 36,000 to 50,000, MP Biomedicals, Solon, Ohio) in drinking water for 8 days; control mice received regular drinking water. During the period when DSS was administered, treated mice were given MC-12 at 5 or 25 mg/kg intraperitoneally (ip) whereas the control group was given saline ip. As above, the mice were weighed and monitored for rectal bleeding or prolapse daily. All mice were euthanized at the end of the study period. Blood samples were collected and colons were dissected and their length was measured. The middle part of colon was fixed in 4% neutralized formalin and the rest was frozen for molecular analyses. Paraffin-embedded tissue sections were stained and scored as above.
The fixed colon was cut into six equal fragments, dehydrated and embedded into paraffin. The tissue sections were stained with hematoxylin and eosin (H&E). The histological score was determined by two pathologists as described, based on the degree (0-3) and extent (0-3) of inflammation, crypt damage (0-4) and the area involved (0-4). The scores of each of the first three parameters were multiplied by the fourth and the sum of these three multiples was the final score (ranging from 0 to 40).

In test [1] the test system is cytosolic phospholipase A2 (cPLA2). The experiment in a line: cPLA2 activity in colon tissue of DSS-treated mice. An excerpt:
cPLA2 enzymes release fatty acids from the second carbon group of glycerol. This particular phospholipase specifically recognizes the sn-2 acyl bond of phospholipids and catalytically hydrolyzes the bond releasing a lysopospholipid and arachidonic acid; the latter is then modified by cyclooxygenases into active compounds called eicosanoids by cyclooxygenases. Eicosanoids include prostaglandins and leukotrienes which are categorized as inflammatory mediators. […] Treatment with MC12 decreased cPLA2 activity by 18% at 40 μg and 26% at the dose of 80 μg (p<0.05).
We also determined the activity of cytosolic phospholipase A2 (cPLA2) in colonic tissues from study mice. cPLA2s are enzymes that release fatty acids from the second carbon group of glycerol. This particular […] specifically recognizes the sn-2 acyl bond of phospholipids and catalytically hydrolyzes the bond releasing arachidonic acid and lysophospholipids, which are then modified into active compounds called eicosanoids by cyclooxygenases. Eicosanoids include prostaglandins and leukotrienes which are categorized as inflammatory mediators.
A cPLA2 assay kit (Cayman, Ann Arbor, Mich.) was used to determine cPLA2 activity following the instructions of the manufacturer. Briefly, a portion of colon tissue was homogenized in cold PBS and centrifuged at 10,000×g for 15 minutes and 10 μl of supernatant from each sample and 5 μl assay buffer were added into a 96-well microplate. The reaction was initialized by adding 200 μl substrate solutions to all wells and incubating for 5 min at room temperature. The fluorescence intensity was measured using a Multiplate Reader (Molecular Devices) at excitation at 485 nm, emission at 530 nm.

A further test has as its system NF-κB. Put plainly: Phospho-NF-κB p65 immunohistochemistry of colonic mucosa, DSS mice. The conditions noted are these: for NF-κB activation / nuclear translocation in colonic mucosa: MC-12 5 and 25 mg/kg, ip and po. An excerpt:
NF-κB is the master regulator of inflammation, controlling the transcription of many genes related to this complex process. It is also the molecular target of the activity of MC 12. Therefore, we determined by immunohistochemistry the level of NF-κB activation in the colonic mucosa of our four study groups of mice. There was minimum or […] activation of NF-κB in the colon of control animals (FIG. 4A). DSS, as expected, activated NF-κB in both colonic crypts and stromal cells (FIG. 4B).
The level of NF-κB activation in the colonic mucosa was determined by immunohistochemistry (FIG. 9). NF-κB is the molecular target of MC-12. Immunohistochemical staining for phospho-NF-κB (activate form of NF-κB) was performed on the colon tissue samples. Briefly, paraffin-embedded sections (4 μm thick) were deparaffinized, rehydrated, and microwave heated for 15 minutes in 0.01 mol/L citric acid buffer (pH 6.0) for antigen retrieval. Then, 3% hydrogen peroxide was applied to block endogenous peroxidase activity. After 30 minutes of blocking with normal serum (Invitrogen, Carlsbad, Calif.), the primary rabbit anti-phospho-NF-κB p65 antibody (Cell Signaling) or corresponding control isotype IgG were applied and incubated overnight at 4° C. Slides were washed thrice with PBS, each for 5 minutes. The biotinylated secondary antibody and the streptavidin-biotin complex were applied, each for 60 minutes incubation and following a thrice-wash at room temperature. After rinsing with PBS, the slides were immersed for 10 minutes in 3,3′-diaminobenzidine (Sigma, St. Louis, Mo.) solution (0.4 mg/mL, with 0.003% hydrogen peroxide), monitored under microscope. The reactions were stopped with distilled water. The slides were counterstained with hematoxylin, dehydrated, and coverslipped. Five photos per section were taken and the positive luminosity was evaluated using PhotoShop program.

Entries after “also recorded” stand apart in the source; their conditions may differ.

From patent US20130261066A1, “TREATMENT OF INFLAMMATORY BOWEL DISEASES USING A TRIPEPTIDE” (THE RESEARCH FOUNDATION OF STATE UNIVERSITY OF NEW YORK, priority 2010, published 2013) come the findings set out here.

For Gln-Ala-Trp (QAW) [MC12], the “reduction of histological score compared to DSS control” value in the test with DSS-induced colitis (5 mg/kg ip) is 48.9%; in the test with DSS-induced colitis (25 mg/kg ip), 66.8%. In addition, the “DSS-induced colonic inflammation (H&E histology)” value in the test on DSS-induced colitis (25 mg/kg ip) is listed as “significantly decreased DSS-induced colonic inflammation”. Besides, the weight loss result in the test with DSS-induced colitis (2% DSS 8 days, MC-12 5 or 25 mg/kg) is reported as “prevented such weight loss in a dose-dependent manner”. Further, the “colon length (DSS-induced reduction)” value in the test with DSS-induced colitis (2% DSS 8 days, MC-12 5 or 25 mg/kg, ip and po) is “prevented this reduction in colon length in a dose-dependent manner”. In addition, in the test with DSS-induced colitis (2% DSS 8 days, ip vs po), the “prevention of weight loss, ip compared to po” value is “more effective in preventing weight loss when given ip compared to po”. The “decrease of cPLA2 activity” value in test [1] (MC12 40 μg) was 18%; in test [1] (MC12 80 μg, p<0.05), 26%; in test [1] (MC-12 5 mg/kg), 18%; in test [1] (MC-12 25 mg/kg, p<0.05), 24%. Further, the “NF-κB activation in colonic mucosa” value in the test on NF-κB (MC12 40 and 80 μg ip) is on record as “less NF-κB nuclear translocation; also recorded: markedly decreased this effect of DSS”; in the test on NF-κB (highest dose 25 mg/kg), “essentially normalizing it”. For the same substance, the “NF-κB activation / nuclear translocation in colonic mucosa” value is on record as “marked decrease of NF-κB nuclear translocation” in the test with NF-κB (listed as MC 12) and “markedly decreased this effect of DSS in a clear dose-dependent manner” with NF-κB (listed as MC-12).
